Reference: the NIST ThermoML archive (doi:10.1021/je900550v)
± gives the expanded uncertainty stated by the source.

Details: 101.33 kPa, Liquid; for speed of sound: Pulse-echo method; for mass density: Vibrating tube method

C[NH2+]CCO.O=C[O-] [2-hydroxy-N-methylethanaminium formate]
Details	mass density [kg/m3]	speed of sound [m/s]	viscosity [mPa·s]
308.15 K	1122.67 ± 2.2	1795.8 ± 2.2	13.73
308.4 K	1122.53 ± 2.2	1795.4 ± 2.2	–
308.65 K	1122.39 ± 2.2	1794.9 ± 2.2	–
308.9 K	1122.25 ± 2.2	1794.4 ± 2.2	–
309.15 K	1122.11 ± 2.2	1793.9 ± 2.2	–
309.4 K	1121.97 ± 2.2	1793.4 ± 2.2	–
309.65 K	1121.83 ± 2.2	1792.9 ± 2.2	–
309.9 K	1121.69 ± 2.2	1792.5 ± 2.2	–
310.15 K	1121.55 ± 2.2	1792 ± 2.2	12.78
310.4 K	1121.41 ± 2.2	1791.5 ± 2.2	–
310.65 K	1121.27 ± 2.2	1791 ± 2.2	–
310.91 K	1121.13 ± 2.2	1790.5 ± 2.2	–
311.16 K	1120.99 ± 2.2	1790 ± 2.2	–
311.4 K	1120.85 ± 2.2	1789.5 ± 2.2	–
311.65 K	1120.71 ± 2.2	1789 ± 2.2	–
311.91 K	1120.57 ± 2.2	1788.5 ± 2.2	–
312.16 K	1120.43 ± 2.2	1788 ± 2.2	–
312.41 K	1120.29 ± 2.2	1787.6 ± 2.2	–
312.66 K	1120.15 ± 2.2	1787.1 ± 2.2	–
312.91 K	1120.02 ± 2.2	1786.6 ± 2.2	–
313.15 K	–	–	11.4
313.16 K	1119.87 ± 2.2	1786.1 ± 2.2	–
313.4 K	1119.74 ± 2.2	1785.6 ± 2.2	–
313.66 K	1119.6 ± 2.2	1785.1 ± 2.2	–
313.9 K	1119.46 ± 2.2	1784.6 ± 2.2	–
314.15 K	1119.32 ± 2.2	1784.1 ± 2.2	–
314.4 K	1119.18 ± 2.2	1783.6 ± 2.2	–
314.65 K	1119.04 ± 2.2	1783.1 ± 2.2	–
314.9 K	1118.9 ± 2.2	1782.7 ± 2.2	–
315.15 K	1118.77 ± 2.2	1782.2 ± 2.2	10.56
315.41 K	1118.62 ± 2.2	1781.7 ± 2.2	–
315.65 K	1118.49 ± 2.2	1781.2 ± 2.2	–
315.91 K	1118.35 ± 2.2	1780.7 ± 2.2	–
316.16 K	1118.21 ± 2.2	1780.2 ± 2.2	–
316.41 K	1118.07 ± 2.2	1779.7 ± 2.2	–
316.66 K	1117.93 ± 2.2	1779.2 ± 2.2	–
316.91 K	1117.79 ± 2.2	1778.8 ± 2.2	–
317.16 K	1117.65 ± 2.2	1778.3 ± 2.2	–
317.4 K	1117.52 ± 2.2	1777.8 ± 2.2	–
317.65 K	–	–	9.7
317.66 K	1117.38 ± 2.2	1777.3 ± 2.2	–
317.91 K	1117.24 ± 2.2	1776.8 ± 2.2	–
318.16 K	1117.1 ± 2.2	1776.3 ± 2.2	–
318.41 K	1116.96 ± 2.2	1775.8 ± 2.2	–
318.65 K	1116.82 ± 2.2	1775.3 ± 2.2	–
318.9 K	1116.69 ± 2.2	1774.8 ± 2.2	–
319.16 K	1116.55 ± 2.2	1774.4 ± 2.2	–
319.41 K	1116.41 ± 2.2	1773.9 ± 2.2	–
319.65 K	1116.27 ± 2.2	1773.4 ± 2.2	–
319.91 K	1116.13 ± 2.2	1772.9 ± 2.2	–
320.16 K	1115.99 ± 2.2	1772.4 ± 2.2	–
320.41 K	1115.86 ± 2.2	1772 ± 2.2	–
320.65 K	1115.72 ± 2.2	1771.5 ± 2.2	9.07
320.91 K	1115.58 ± 2.2	1771 ± 2.2	–
321.15 K	1115.44 ± 2.2	1770.5 ± 2.2	–
321.41 K	1115.3 ± 2.2	1770 ± 2.2	–
321.66 K	1115.16 ± 2.2	1769.6 ± 2.2	–
321.9 K	1115.03 ± 2.2	1769.1 ± 2.2	–
322.15 K	1114.89 ± 2.2	1768.6 ± 2.2	–
322.41 K	1114.75 ± 2.2	1768.1 ± 2.2	–
322.65 K	1114.61 ± 2.2	1767.6 ± 2.2	–
322.91 K	1114.47 ± 2.2	1767.2 ± 2.2	–
323.15 K	–	–	8.38
323.16 K	1114.34 ± 2.2	1766.7 ± 2.2	–
323.41 K	1114.2 ± 2.2	1766.2 ± 2.2	–
323.65 K	1114.06 ± 2.2	1765.7 ± 2.2	–
323.91 K	1113.92 ± 2.2	1765.2 ± 2.2	–
324.16 K	1113.79 ± 2.2	1764.8 ± 2.2	–
324.41 K	1113.65 ± 2.2	1764.3 ± 2.2	–
324.65 K	1113.51 ± 2.2	1763.8 ± 2.2	–
324.9 K	1113.38 ± 2.2	1763.3 ± 2.2	–
325.16 K	1113.24 ± 2.2	1762.8 ± 2.2	–
325.4 K	1113.1 ± 2.2	1762.3 ± 2.2	–
325.66 K	1112.96 ± 2.2	1761.9 ± 2.2	–
325.9 K	1112.83 ± 2.2	1761.4 ± 2.2	–
326.16 K	1112.69 ± 2.2	1760.9 ± 2.2	–
326.41 K	1112.55 ± 2.2	1760.4 ± 2.2	–
326.66 K	1112.42 ± 2.2	1759.9 ± 2.2	–
326.9 K	1112.28 ± 2.2	1759.4 ± 2.2	–
327.16 K	1112.14 ± 2.2	1759 ± 2.2	–
327.4 K	1112.01 ± 2.2	1758.5 ± 2.2	–
327.66 K	1111.87 ± 2.2	1758 ± 2.2	–
327.9 K	1111.74 ± 2.2	1757.5 ± 2.2	–
328.15 K	1111.6 ± 2.2	1757 ± 2.2	–
328.41 K	1111.46 ± 2.2	1756.5 ± 2.2	–
328.66 K	1111.33 ± 2.2	1756 ± 2.2	–
328.9 K	1111.19 ± 2.2	1755.6 ± 2.2	–
329.16 K	1111.06 ± 2.2	1755.1 ± 2.2	–
329.4 K	1110.92 ± 2.2	1754.6 ± 2.2	–
329.65 K	1110.78 ± 2.2	1754.1 ± 2.2	–
329.9 K	1110.65 ± 2.2	1753.6 ± 2.2	–
330.16 K	1110.52 ± 2.2	1753.2 ± 2.2	–
330.41 K	1110.38 ± 2.2	1752.7 ± 2.2	–
330.66 K	1110.25 ± 2.2	1752.2 ± 2.2	–
330.91 K	1110.12 ± 2.2	1751.8 ± 2.2	–
331.16 K	1109.99 ± 2.2	1751.3 ± 2.2	–
331.41 K	1109.86 ± 2.2	1750.8 ± 2.2	–
331.66 K	1109.73 ± 2.2	1750.3 ± 2.2	–
331.91 K	1109.6 ± 2.2	1749.9 ± 2.2	–
332.16 K	1109.47 ± 2.2	1749.4 ± 2.2	–
332.41 K	1109.34 ± 2.2	1748.9 ± 2.2	–
332.66 K	1109.21 ± 2.2	1748.5 ± 2.2	–
332.91 K	1109.08 ± 2.2	1748 ± 2.2	–
333.16 K	1108.95 ± 2.2	1747.5 ± 2.2	–
333.41 K	1108.82 ± 2.2	1747.1 ± 2.2	–
333.66 K	1108.69 ± 2.2	1746.6 ± 2.2	–
333.91 K	1108.56 ± 2.2	1746.2 ± 2.2	–
334.16 K	1108.43 ± 2.2	1745.7 ± 2.2	–
334.41 K	1108.3 ± 2.2	1745.2 ± 2.2	–
334.66 K	1108.18 ± 2.2	1744.8 ± 2.2	–
334.91 K	1108.05 ± 2.2	1744.3 ± 2.2	–
335.16 K	1107.92 ± 2.2	1743.8 ± 2.2	–
335.41 K	1107.79 ± 2.2	1743.4 ± 2.2	–
335.66 K	1107.67 ± 2.2	1742.9 ± 2.2	–
335.91 K	1107.54 ± 2.2	1742.5 ± 2.2	–
336.16 K	1107.42 ± 2.2	1742 ± 2.2	–
336.41 K	1107.29 ± 2.2	1741.6 ± 2.2	–
336.66 K	1107.16 ± 2.2	1741.1 ± 2.2	–
336.9 K	1107.03 ± 2.2	1740.7 ± 2.2	–
337.16 K	1106.9 ± 2.2	1740.2 ± 2.2	–
337.4 K	1106.78 ± 2.2	1739.8 ± 2.2	–
337.66 K	1106.66 ± 2.2	1739.4 ± 2.2	–
337.9 K	1106.53 ± 2.2	1738.9 ± 2.2	–
338.15 K	1106.43 ± 2.2	1738.6 ± 2.2	–
